According to US12448389B2, “BRM targeting compounds and associated methods of use” (Prelude Therapeutics Incorporated, priority 2020, dated 2025):

Tests used:
SMARCA4-HiBiT = target: T1, SMARCA4-HiBiT (Homo sapiens, UniProt P51532); assay: SMARCA4 HiBiT degradation assay in HeLa cells; type: cell-based; details: 18 hours incubation; for DC50: read-out: HeLa-HiBit-SM4 DC50; for Dmax: HeLa, read-out: HeLa-HiBit-SM4 Dmax (%)
T1 construct: SMARCA4-HiBiT knock-in Hela monoclonal cell (CS3023226); host or cells: HeLa monoclonal knock-in line (CRISPR HiBiT knock-in at the endogenous locus, heterozygous)
T1 sequence (P51532 whole entry): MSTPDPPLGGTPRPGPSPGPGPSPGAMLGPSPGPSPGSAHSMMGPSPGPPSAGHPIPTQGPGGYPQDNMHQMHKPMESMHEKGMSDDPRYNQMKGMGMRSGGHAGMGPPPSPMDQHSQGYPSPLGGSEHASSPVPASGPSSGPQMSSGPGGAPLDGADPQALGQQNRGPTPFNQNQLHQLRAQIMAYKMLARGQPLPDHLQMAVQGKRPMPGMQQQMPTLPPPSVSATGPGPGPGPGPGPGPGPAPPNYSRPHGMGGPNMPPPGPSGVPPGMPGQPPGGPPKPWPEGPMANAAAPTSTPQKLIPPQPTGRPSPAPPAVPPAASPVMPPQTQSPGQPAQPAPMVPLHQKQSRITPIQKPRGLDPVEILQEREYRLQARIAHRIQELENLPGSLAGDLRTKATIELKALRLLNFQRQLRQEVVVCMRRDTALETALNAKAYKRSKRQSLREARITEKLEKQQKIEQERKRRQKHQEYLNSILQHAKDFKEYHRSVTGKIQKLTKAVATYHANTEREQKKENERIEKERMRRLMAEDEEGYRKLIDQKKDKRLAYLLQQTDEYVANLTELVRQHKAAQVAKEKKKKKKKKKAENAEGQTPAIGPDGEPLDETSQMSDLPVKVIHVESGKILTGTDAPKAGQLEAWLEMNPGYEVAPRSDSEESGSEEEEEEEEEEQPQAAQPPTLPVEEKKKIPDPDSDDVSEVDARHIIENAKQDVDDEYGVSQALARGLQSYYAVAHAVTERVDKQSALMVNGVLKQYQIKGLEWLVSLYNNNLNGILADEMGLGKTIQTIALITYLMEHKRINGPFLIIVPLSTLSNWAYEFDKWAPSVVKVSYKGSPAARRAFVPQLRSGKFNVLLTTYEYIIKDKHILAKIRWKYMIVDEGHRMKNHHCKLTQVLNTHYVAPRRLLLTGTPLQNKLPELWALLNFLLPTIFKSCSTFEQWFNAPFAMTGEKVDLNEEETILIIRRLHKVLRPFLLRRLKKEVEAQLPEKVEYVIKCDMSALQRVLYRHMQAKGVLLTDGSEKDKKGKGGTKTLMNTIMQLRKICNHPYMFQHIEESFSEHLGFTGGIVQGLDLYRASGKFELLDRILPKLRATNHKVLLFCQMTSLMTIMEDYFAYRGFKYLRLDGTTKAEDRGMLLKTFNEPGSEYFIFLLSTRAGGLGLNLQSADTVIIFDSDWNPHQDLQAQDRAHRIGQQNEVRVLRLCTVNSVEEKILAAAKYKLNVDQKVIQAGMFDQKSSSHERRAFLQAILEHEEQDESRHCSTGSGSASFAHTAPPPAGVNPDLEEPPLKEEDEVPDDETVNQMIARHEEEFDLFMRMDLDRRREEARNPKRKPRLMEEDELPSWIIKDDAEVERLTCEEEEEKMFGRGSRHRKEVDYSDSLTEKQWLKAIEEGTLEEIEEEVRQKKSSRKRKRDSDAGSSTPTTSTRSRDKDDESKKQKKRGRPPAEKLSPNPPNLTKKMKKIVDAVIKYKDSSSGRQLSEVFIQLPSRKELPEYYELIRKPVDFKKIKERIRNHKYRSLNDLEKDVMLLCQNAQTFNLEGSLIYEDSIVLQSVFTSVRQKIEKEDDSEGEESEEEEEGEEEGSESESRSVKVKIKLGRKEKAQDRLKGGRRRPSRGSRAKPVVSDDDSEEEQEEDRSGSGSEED
Method in brief: (§1)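 HeLa monoclonal lines with heterozygous HiBiT knock-in were seeded at 2500 cells/well in EMEM with 10% FBS and treated with compound for 18 h at 37 °C. Remaining tagged protein was measured by Nano-Glo HiBiT lytic luminescence after 30–60 min at RT, and values came from curve fitting.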

SMARCA2-HiBiT = target: T2, SMARCA2-HiBiT (Homo sapiens, UniProt P51531); assay: SMARCA2 HiBiT degradation assay in HeLa cells; type: cell-based; details: 18 hours incubation; for DC50: read-out: HeLa_HiBit-SM2 DC50; for Dmax: HeLa, read-out: HeLa-HiBit-SM2 Dmax (%)
T2 construct: SMARCA2-HiBiT knock-in Hela monoclonal cell (CS302366); host or cells: HeLa monoclonal knock-in line (CRISPR HiBiT knock-in at the endogenous locus, heterozygous)
T2 sequence (P51531 whole entry): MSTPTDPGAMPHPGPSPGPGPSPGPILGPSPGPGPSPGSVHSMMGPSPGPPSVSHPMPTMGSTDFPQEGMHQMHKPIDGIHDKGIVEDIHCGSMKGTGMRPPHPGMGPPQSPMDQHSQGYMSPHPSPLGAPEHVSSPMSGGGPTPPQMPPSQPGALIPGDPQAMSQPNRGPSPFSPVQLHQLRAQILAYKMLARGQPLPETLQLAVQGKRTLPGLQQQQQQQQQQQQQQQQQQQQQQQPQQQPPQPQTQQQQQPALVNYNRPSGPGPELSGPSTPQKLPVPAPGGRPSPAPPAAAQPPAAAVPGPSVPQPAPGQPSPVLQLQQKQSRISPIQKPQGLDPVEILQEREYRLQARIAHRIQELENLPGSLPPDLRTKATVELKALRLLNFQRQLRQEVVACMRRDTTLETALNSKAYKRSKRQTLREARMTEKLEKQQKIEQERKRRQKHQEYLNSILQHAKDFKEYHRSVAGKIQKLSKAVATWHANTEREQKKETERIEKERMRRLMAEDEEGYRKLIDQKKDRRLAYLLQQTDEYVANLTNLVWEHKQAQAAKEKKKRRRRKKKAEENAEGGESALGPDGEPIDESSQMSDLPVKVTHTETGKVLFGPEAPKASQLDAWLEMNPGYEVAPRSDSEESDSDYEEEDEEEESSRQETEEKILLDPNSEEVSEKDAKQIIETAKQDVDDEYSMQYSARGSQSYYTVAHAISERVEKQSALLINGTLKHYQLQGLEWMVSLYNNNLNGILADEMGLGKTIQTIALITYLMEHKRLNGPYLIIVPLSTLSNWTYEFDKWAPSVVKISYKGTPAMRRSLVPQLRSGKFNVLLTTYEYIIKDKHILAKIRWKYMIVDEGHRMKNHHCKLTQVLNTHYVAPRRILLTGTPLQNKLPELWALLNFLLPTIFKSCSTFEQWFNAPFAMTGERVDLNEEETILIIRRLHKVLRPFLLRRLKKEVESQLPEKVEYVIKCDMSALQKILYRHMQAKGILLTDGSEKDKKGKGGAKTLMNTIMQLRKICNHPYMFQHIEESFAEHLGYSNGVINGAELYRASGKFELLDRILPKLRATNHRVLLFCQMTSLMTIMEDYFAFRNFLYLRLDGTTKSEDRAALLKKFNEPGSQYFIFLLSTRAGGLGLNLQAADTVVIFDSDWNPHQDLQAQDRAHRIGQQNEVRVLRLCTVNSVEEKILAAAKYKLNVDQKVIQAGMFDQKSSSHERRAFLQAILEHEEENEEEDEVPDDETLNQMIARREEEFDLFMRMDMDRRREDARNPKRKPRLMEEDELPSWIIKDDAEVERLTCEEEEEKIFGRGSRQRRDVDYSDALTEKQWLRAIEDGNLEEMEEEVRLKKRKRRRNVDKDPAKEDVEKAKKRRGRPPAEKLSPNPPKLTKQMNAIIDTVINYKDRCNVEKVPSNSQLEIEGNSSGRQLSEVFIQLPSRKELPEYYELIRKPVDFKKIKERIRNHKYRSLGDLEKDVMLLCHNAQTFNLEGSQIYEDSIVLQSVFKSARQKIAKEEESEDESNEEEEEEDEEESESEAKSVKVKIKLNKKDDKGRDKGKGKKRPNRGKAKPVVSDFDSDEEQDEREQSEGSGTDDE
Method in brief: as §1

| DC50 (SMARCA4-HiBiT) | Dmax (SMARCA4-HiBiT) | DC50 (SMARCA2-HiBiT) | Dmax (SMARCA2-HiBiT) | HeLa-HiBit-SM4 Dmax (%) (SMARCA4-HiBiT) | Structure (SMILES) |
| --- | --- | --- | --- | --- | --- |
| 0.01 to 0.1 µM | 50 to 75% | < 0.01 µM | 75 to 85% |  | O=C1CCC(N2C(=O)c3ccc(N4CCC(NC5CCN(C(=O)N6CCN7c8cc(-c9ccccc9O)nnc8NC[C@H]7C6)CC5)CC4)cc3C2=O)C(=O)N1 (stereo partly drawn) [Example 141, 2-(2,6-dioxopiperidin-3-yl)-5-(4-((1-((S)-2-(2-hydroxyphenyl)-6,6a,7,8,9,10-hexahydro-5H-pyrazino[1′,2′:4,5]pyrazino[2,3-c]pyridazine-8-carbonyl)piperidin-4-yl)amino)piperidin-1-yl)isoindoline-1,3-dione] |
| 0.01 to 0.1 µM | 50 to 75% | < 0.01 µM | > 85% |  | C[C@@H]1C[C@H](CN2C[C@@H]3[C@H](C2)[C@H]3CN2CCN3c4cc(-c5ccccc5O)nnc4NC[C@H]3C2)CCN1c1cc2c(cc1F)C(=O)N(C1CCC(=O)NC1=O)C2=O (stereo partly shown) [Example 176] |
| < 0.01 µM | 50 to 75% | < 0.01 µM | > 85% |  | CC1CN(CC2CN(c3ccc4c(c3)C(=O)N(C3CCC(=O)NC3=O)C4=O)C2)CC(C)N1C(=O)N1CCN2c3cc(-c4ccccc4O)nnc3NC[C@H]2C1 (stereo partly drawn) [Example 274, 2-(2,6-dioxopiperidin-3-yl)-5-(3-((4-((S)-2-(2-hydroxyphenyl)-6,6a,7,8,9,10-hexahydro-5H-pyrazino[1 ′,2′:4,5]pyrazino[2,3-c]pyridazine-8-carbonyl)-3,5-dimethylpiperazin-1-yl)methyl)azetidin-1-yl)isoindoline-1,3-dione] |
| 0.01 to 0.1 µM | 50 to 75% | < 0.01 µM | 75 to 85% |  | CCC1CN(CC2CCN(c3ccc4c(c3)C(=O)N(C3CCC(=O)NC3=O)C4=O)CC2)CCN1C(=O)N1CCN2c3cc(-c4ccccc4O)nnc3NC[C@H]2C1 (stereo partly drawn) [Example 269, 2-(2,6-dioxopiperidin-3-yl)-5-(4-((3-ethyl-4-((S)-2-(2-hydroxyphenyl)-6,6a,7,8,9,10-hexahydro-5H-pyrazino[1′,2′:4,5]pyrazino[2,3-c]pyridazine-8-carbonyl)piperazin-1-yl)methyl)piperidin-1-yl)isoindoline-1,3-dione] |
| < 0.01 µM | 75 to 85% | < 0.01 µM | > 85% |  | O=C1CCC(N2Cc3cc(N4CCC(CNC56CCC(C(=O)N7CCN8c9cc(-c%10ccccc%10O)nnc9NC[C@H]8C7)(CC5)CC6)CC4)ccc3C2=O)C(=O)N1 (stereo partly drawn) [Example 84, 3-(5-(4-(((4-((S)-2-(2-hydroxyphenyl)-6,6a,7,8,9,10-hexahydro-5H-pyrazino[1 ′,2′:4,5]pyrazino[2,3-c]pyridazine-8-carbonyl)bicyclo[2.2.2]octan-1-yl)amino)methyl)piperidin-1-yl)-1-oxoisoindolin-2-yl)piperidine-2,6-dione] |
| < 0.01 µM | > 85% | < 0.01 µM | > 85% |  | O=C1CCC(n2ccc3cc(N4CCC(CN5CCC(N6CCN7c8cc(-c9ccccc9O)nnc8NC[C@H]7C6)CC5)CC4)ccc3c2=O)C(=O)N1 (stereo partly drawn) [Example 26, 3-(6-(4-((4-((S)-2-(2-hydroxyphenyl)-5,6,6a,7,9,10-hexahydro-8H-pyrazino [1′,2′:4,5]pyrazino[2,3-c]pyridazin-8-yl)piperidin-1-yl)methyl)piperidin-1-yl)-1-oxoisoquinolin-2(1H)-yl)piperidine-2,6-dione] |
| < 0.01 µM | 50 to 75% | < 0.01 µM | 75 to 85% |  | O=C1CCC(N2C(=O)c3ccc(N4CC(CN5CCN(C(=O)N6CCN7c8cc(-c9ccccc9O)nnc8NC[C@H]7C6)CC5)C4)cc3C2=O)C(=O)N1 (stereo partly drawn) [Example 82, 2-(2,6-dioxopiperidin-3-yl)-5-(3-((4-((S)-2-(2-hydroxyphenyl)-6,6a,7,8,9,10-hexahydro-511-pyrazino[1′,2′:4,5]pyrazino[2,3-c]pyridazine-8-carbonyl)piperazin-1-yl)methyl)azetidin-1-yl) isoindoline-1,3-dione] |
| < 0.01 µM | > 85% | < 0.01 µM | > 85% |  | CC1CN(CC2CCN(c3ccc4c(c3)C(=O)N(C3CCC(=O)NC3=O)C4=O)CC2)CCC1CN1CCN2c3cc(-c4ccccc4O)nnc3NC[C@H]2C1 (stereo partly drawn) [Example 161, 2-(2,6-dioxopiperidin-3-yl)-5-(4-((4-(((S)-2-(2-hydroxyphenyl)-5,6,6a,7,9,10-hexahydro-8H-pyrazino[1′,2′:4,5]pyrazino[2,3-c]pyridazin-8-yl)methyl)-3-methylpiperidin-1-yl)methyl)piperidin-1-yl)isoindoline-1,3-dione] |
| 0.01 to 0.1 µM | 50 to 75% | < 0.01 µM | 75 to 85% |  | O=C1CCC(N2C(=O)c3ccc(N4CCC(CN5CCC(C(=O)N6CCN7c8cc(-c9ccccc9O)nnc8NC[C@H]7C6)CC5)C(F)(F)C4)cc3C2=O)C(=O)N1 (stereo partly drawn) [Example 196, 5-[3,3-difluoro-4-[[4-[(10S)-4-(2-hydroxyphenyl)-1,5,6,8,12-pentazatricyclo[8.4.0.02,7]tetradeca-2(7),3,5-trien-12-carbonyl]piperidin-1-yl]methyl]piperidin-1-yl]-2-(2,6-dioxopiperidin-3-yl) isoindole-1,3-dione] |
| < 0.01 µM | > 85% | < 0.01 µM | > 85% |  | O=C1CCC(N2Cc3ccc(N4CC[C@H](CN5C[C@@H]6[C@H](C5)[C@H]6CN5CCN6c7cc(-c8ccccc8O)nnc7NC[C@H]6C5)[C@@H](F)C4)cc3C2=O)C(=O)N1 (stereo partly drawn) [Example 203, 3-(6-((3R,4R)-3-fluoro-4-(((1R,5S,6R)-6-(((S)-2-(2-hydroxyphenyl)-5,6,6a,7,9,10-hexahydro-8H-pyrazino[1′,2′:4,5]pyrazino[2,3-c]pyridazin-8-yl)methyl)-3-azabicyclo[3.1.0]hexan-3-yl)methyl)piperidin-1-yl)-1-oxoisoindolin-2-yl)piperidine-2,6-dione] |
| 0.01 to 0.1 µM | 50 to 75% | < 0.01 µM | 75 to 85% |  | C[C@H]1CN2c3cc(-c4ccccc4O)nnc3NC[C@H]2CN1C[C@H]1[C@@H]2CN(CC3CCN(c4ccc5c(c4)C(=O)N(C4CCC(=O)NC4=O)C5)CC3)C[C@@H]21 (stereo partly drawn) [Example 54, 3-(6-(4-(((1R,5S,6r)-6-(((6aS,9S)-2-(2-hydroxyphenyl)-9-methyl-5,6,6a,7,9,10-hexahydro-8H-pyrazino[1′,2′:4,5]pyrazino[2,3-c]pyridazin-8-yl)methyl)-3-azabicyclo[3.1.0]hexan-3-yl)methyl)piperidin-1-yl)-1-oxoisoindolin-2-yl)piperidine-2,6-dione] |
| < 0.01 µM | 50 to 75% | < 0.01 µM | 75 to 85% |  | O=C1CCC(N2Cc3cc(N4CCO[C@H](CN5C[C@@H]6[C@H](C5)[C@H]6CN5CCN6c7cc(-c8ccccc8O)nnc7NC[C@H]6C5)C4)ccc3C2=O)C(=O)N1 (stereo partly drawn) [Example 268, 3-(5-((R)-2-(((1R,5S,6S)-6-(((S)-2-(2-hydroxyphenyl)-5,6,6a,7,9,10-hexahydro-8H-pyrazino[1′,2′:4,5]pyrazino[2,3-c]pyridazin-8-yl)methyl)-3-azabicyclo[3.1.0]hexan-3-yl)methyl)morpholino)-1-oxoisoindolin-2-yl)piperidine-2,6-dione] |
| < 0.01 µM | 75 to 85% | < 0.01 µM | 75 to 85% |  | O=C1CCC(N2C(=O)c3ccc(C4CCN(CC5CCN(C(=O)N6CCN7c8cc(-c9ccccc9O)nnc8NC[C@H]7C6)CC5)CC4)cc3C2=O)C(=O)N1 (stereo partly drawn) [Example 144, 2-(2,6-dioxopiperidin-3-yl)-5-(1-((1-((S)-2-(2-hydroxyphenyl)-6,6a,7,8,9,10-hexahydro-5H-pyrazino[1′,2′:4,5]pyrazino[2,3-c]pyridazine-8-carbonyl)piperidin-4-yl)methyl)piperidin-4-yl)isoindoline-1,3-dione] |
| < 0.01 µM |  | < 0.01 µM | > 85% | B (B=75%<Dmax<=85%) | CC1CN(c2ccc3c(c2)C(=O)N(C2CCC(=O)NC2=O)C3=O)CCC1CN1C[C@@H]2[C@H](C1)[C@H]2CN1CCN2c3cc(-c4ccccc4O)nnc3NC[C@H]2C1 (stereo partly drawn) [Example 197, 2-(2,6-dioxopiperidin-3-yl)-5-(4-(((1R,5S,6r)-6-(((S)-2-(2-hydroxyphenyl)-5,6,6a,7,9,10-hexahydro-8H-pyrazino[1′,2′:4,5]pyrazino[2,3-c]pyridazin-8-yl)methyl)-3-azabicyclo[3.1.0]hexan-3-yl)methyl)-3-methylpiperidin-1-yl)isoindoline-1,3-dione] |
| < 0.01 µM | > 85% | < 0.01 µM | > 85% |  | O=C1CCC(N2C(=O)c3ccc(N4CCC(CN5C[C@H]6C[C@H](CN7CCN8c9cc(-c%10ccccc%10O)nnc9NC[C@H]8C7)C[C@H]6C5)CC4)cc3C2=O)C(=O)N1 (stereo partly drawn) [Example 45, 2-(2,6-dioxopiperidin-3-yl)-5-(4-(((3aR,5s,6aS)-5-(((S)-2-(2-hydroxyphenyl)-5,6,6a,7,9,10-hexahydro-8H-pyrazino [1′,2′:4,5]pyrazino[2,3-c]pyridazin-8-yl)methyl)hexahydrocyclopenta[c]pyrrol-2(1H)-yl)methyl)piperidin-1-yl)isoindoline-1,3-dione] |
| 0.01 to 0.1 µM | 50 to 75% | < 0.01 µM | 50 to 75% |  | CC(COc1ccc2c(c1)CN([C@@H]1CCC(=O)NC1=O)C2=O)N1CCC(N2CCN3c4cc(-c5ccccc5O)nnc4NC[C@H]3C2)CC1 (stereo partly drawn) [Example 215, (3R)-3-(5-(2-(4-((S)-2-(2-hydroxyphenyl)-5,6,6a,7,9,10-hexahydro-8H-pyrazino[1′,2′:4,5]pyrazino[2,3-c]pyridazin-8-yl)piperidin-1-yl)propoxy)-1-oxoisoindolin-2-yl)piperidine-2,6-dione] |
